Assay results as given in paper PMC9784689, “Bioactivity Profiling of In Silico Predicted Linear Toxins from the Ants Myrmica rubra and Myrmica ruginodis” (Toxins, 2022).
No end group written: not given here.

Tests used:
[1] = test system: Escherichia coli DE3 (BL21(DE3)); settings: E. coli, 100 µM, after 48 h, MH II medium, 37 °C, OD600 normalized to untreated bacteria, triplicate
[2] = test system: Staphylococcus epidermidis (ATCC 35984; DSM 28319); settings: at least 95% growth inhibition, nine log2 dilutions, triplicate, MH II, 48 h
Procedure: (§1) Cryo-conserved cultures (Table 3) were transferred with a sterile inoculation loop to tryptic soy agar (TSA) plates (Carl Roth) sealed with Parafilm (BEMIS, Neenah, WI, USA), and were incubated for 1–2 days at 37 °C depending on growth rates. Plates were then stored at 4 °C. For each of the three replicates, single colonies were picked with a sterile pipette tip, transferred into 2–3 mL Mueller-Hinton II (MH II) medium (BD, Heidelberg, Germany) and cultivated for ~24 h in unsealed 15 mL reaction tubes at 37 °C, shaking at 180 rpm. […] We measured the optical density at 600 nm (OD600) by transferring 1 mL of bacterial suspension to a polystyrene cuvette (SARSTED, Nümbrecht, Germany) in an Ultrospec 10 photometer (Biochrome, Cambridge, UK). […]
(§2) The experiments were carried out in 96-multiwell plates with a final volume of 100 µL per well (50 µL of bacterial suspension; 50 µL of testing peptide with a final concentration of 1.9% DMSO). […] The OD600 was measured after 0, 24, and 48 h using a BioTek Eon microplate reader and Gen5 v2.09. One experiment was carried out with automatic OD600 measurement every 20 min with a prior 30 s double orbital rotation at 237 rpm with overall incubation at 37 °C for 60 h in the microplate reader. […]

[3] = test system: Escherichia coli DE3 (BL21(DE3)); assay type: cell-based; settings: 20 µL per dilution from 48 h MIC experiments plated on TSA, n = 2
[4] = test system: Micrococcus luteus (DSM 20030); settings: M. luteus, 100 µM, after 48 h, MH II medium, 37 °C, OD600 normalized to untreated bacteria, triplicate
[5] = test system: Staphylococcus aureus (DSM 2569); settings: at least 95% growth inhibition, nine log2 dilutions, triplicate, MH II, 48 h
Procedure: as §1, §2

MDCK II cells = settings: MDCK II cells, 100 µM, 1% DMSO, 48 h, CellTiter-Glo luminescence, triplicate
[6] = test system: Escherichia coli DE3 (BL21(DE3)); settings: at least 95% growth inhibition, nine log2 dilutions, triplicate, MH II, 48 h
Procedure: as §1, §2

[7] = test system: Staphylococcus aureus (DSM 2569); settings: S. aureus, 100 µM, after 48 h, MH II medium, 37 °C, OD600 normalized to untreated bacteria, triplicate
[8] = test system: Staphylococcus epidermidis (ATCC 35984; DSM 28319); assay type: cell-based; settings: 20 µL per dilution from 48 h MIC experiments plated on TSA, n = 2
[9] = test system: Staphylococcus epidermidis (ATCC 35984; DSM 28319); settings: S. epidermidis, 100 µM, after 48 h, MH II medium, 37 °C, OD600 normalized to untreated bacteria, triplicate
[10] = test system: Listeria monocytogenes (DSM 20600); assay type: cell-based; settings: 20 µL per dilution from 48 h MIC experiments plated on TSA, n = 2
[11] = test system: Micrococcus luteus (DSM 20030); assay type: cell-based; settings: 20 µL per dilution from 48 h MIC experiments plated on TSA, n = 2
[12] = test system: Micrococcus luteus (DSM 20030); settings: at least 95% growth inhibition, nine log2 dilutions, triplicate, MH II, 48 h
Procedure: as §1, §2

[13] = test system: Listeria monocytogenes (DSM 20600); settings: L. monocytogenes, 100 µM, after 48 h, MH II medium, 37 °C, OD600 normalized to untreated bacteria, triplicate

For INPKLWLKLF-NH2 [U-MYRTX-Mrug5a], the Inhibition of growth [1] was 97%, the MIC [2] was 50 µM and the MBC [3] was 50 µM. For the same substance, the Inhibition of growth [4] was 89%, the MIC [5] was 100 µM and the “Cytotoxicity (cell viability), in words” value (MDCK II cells) was “negligible cytotoxicity”. It also gave an MIC [6] of 50 µM, an Inhibition of growth [7] of 96% and an MBC [8] of 50 µM. For the same substance, the Inhibition of growth [9] was 97%, the MBC [10] was 50 µM and the MBC [11] was 6.25 µM. For the same substance, the MIC [12] was 6.25 µM and the Inhibition of growth [13] was 81%.
